Experimental data reported in patent publication US9040252B2, “Method for increasing and regulating light emission from a chemiluminescent reaction” (Cyanagen S.R.L., priority 2010, dated 2015).

The compounds below were run against T1, horseradish peroxidase (HRP-type VIA) (Armoracia rusticana, UniProt P00433) (assay: Dependence of the enhanced luminol-peroxide-peroxidase chemiluminescent reaction on secondary enhancer concentration). Conditions: pH 9.00 Tris buffer; initial light output, FIG. 4.
T1 construct: purchased Sigma-Aldrich
T1 sequence (P00433 31-338 limits assumed): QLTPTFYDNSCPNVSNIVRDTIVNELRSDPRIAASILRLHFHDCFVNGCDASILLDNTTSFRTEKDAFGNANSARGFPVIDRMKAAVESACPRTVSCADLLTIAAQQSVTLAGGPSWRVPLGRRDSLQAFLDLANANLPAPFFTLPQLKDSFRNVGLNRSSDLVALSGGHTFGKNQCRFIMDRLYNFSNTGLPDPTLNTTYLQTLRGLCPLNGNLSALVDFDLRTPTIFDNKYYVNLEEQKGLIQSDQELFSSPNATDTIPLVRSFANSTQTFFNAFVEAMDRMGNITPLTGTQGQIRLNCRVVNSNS
Format: biochemical
Protocol: All measurements reported in Examples were carried out with a Varian Eclipse spectrofluorimeter and the following settings: bio/chemiluminescence mode; emission wavelength: 425 nm; emission slit: 20 nm; Photomultiplier Detection Voltage: medium.
A series of chemiluminescent substrates in 0.15 M, pH 9.00+−0.05 Tris buffer, is prepared, with the following compositions:
[luminol sodium salt]=5 mM
[sodium 3-(phenothiazin-10-yl)propane-1-sulfonate]=3 mM secondary enhancer=MORP, imidazole, 1-methylimidazole, 1,2,3-triazole, 1,2,4-triazole at the following concentrations:
A series of disposable polymethylmethacrylate cuvettes is prepared, each containing 2 mL of substrate solution. To each cuvette are added 10 μL of a 2 μg/mL horseradish peroxidase solution (HRP-type VIA) solution and simultaneously a 30 seconds countdown is started. The cuvette is closed with a square piece of parafilm and vortexed for 3 seconds. The cuvette is then inserted into the spectrofluorimeter. At the end of the 30 seconds countdown measurement of the luminescent signal is initiated and recorded for a 900 sec period. In all cases the signal reaches a plateau level within 30 seconds after the addition of the peroxidase, and then begins to slowly decrease. Initial, plateau levels are plotted vs. secondary enhancer concentration, FIG. 4. As it can be seen, the effect of MORP on signal intensity is quite strong even at very low concentrations. Signal output reaches a sharp maximum at about 1.5 mM of MORP and then falls abruptly. In contrast, N-azoles exert a much more gradual effect on signal intensity, reaching a plateau at much higher concentration levels. Thus, they afford a considerable degree of regulation of the chemiluminescent light output, which cannot be obtained with dialkylaminopyridine secondary enhancers such as MORP.

Structure (SMILES) | behaviour of enhancement effect with increasing secondary enhancer concentration
c1nc[nH]n1 [1,2,4-triazole] | tend to reach a plateau
Cn1ccnc1 [1-methylimidazole] | tend to reach a plateau
c1c[nH]cn1 [imidazole] | begin to slowly decrease their action at very high concentration
c1cc(N2CCOCC2)ccn1 [MORP, 4-morpholinopyridine, reference compound] | sharply decreases its enhancement effect with a further increase in concentration
c1c[nH]nn1 [1,2,3-triazole] | tend to reach a plateau
